Data published in ChEMBL document CHEMBL4308834, “Novel Allosteric Activators for Ferroptosis Regulator Glutathione Peroxidase 4” (J Med Chem, 2018).
Activity calls are given as the source filed them. No cut-off for these calls is given here.

Columns and labels:
[1] = target: T1, Phospholipid hydroperoxide glutathione peroxidase GPX4 (Homo sapiens) (UniProt P36969); assay: Activation of GPX4 in A23187-stimulated human PMN leukocytes assessed as increase in 15-HETE preincubated for 15 mins followed by A23187 addition and measured after 120 mins by LC-MS analysis
T1 sequence (whole entry): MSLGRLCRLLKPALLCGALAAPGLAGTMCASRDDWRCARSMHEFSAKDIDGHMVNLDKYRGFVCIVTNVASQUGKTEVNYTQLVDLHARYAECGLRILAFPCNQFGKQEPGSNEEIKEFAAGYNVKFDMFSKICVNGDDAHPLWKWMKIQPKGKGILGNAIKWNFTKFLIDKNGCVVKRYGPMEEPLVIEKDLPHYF

[2] = target: T1, Phospholipid hydroperoxide glutathione peroxidase GPX4 (Homo sapiens); assay: Activation of GPX4 in A23187-stimulated human PMN leukocytes assessed as increase in 12-HETE preincubated for 15 mins followed by A23187 addition and measured after 120 mins by LC-MS analysis
[3] = target: T1, Phospholipid hydroperoxide glutathione peroxidase GPX4 (Homo sapiens); assay: Activation of GPX4 (unknown origin) expressed in HEK293T cells harboring luc2P/NF-kBRE/Hygro plasmid assessed as inhibition of IL1beta-stimulated NFkB activation preincubated for 30 mins followed by […] and measured after 6 hrs by luciferase reporter gene assay; assay type: cell-based
[4] = target: T2, Polyunsaturated fatty acid lipoxygenase ALOX15 (Homo sapiens) (UniProt P16050); assay: Inhibition of 15-LOX (unknown origin) at 500 uM preincubated for 1 mins followed by arachidonic acid substrate addition by spectrophotometric method
T2 sequence (whole entry): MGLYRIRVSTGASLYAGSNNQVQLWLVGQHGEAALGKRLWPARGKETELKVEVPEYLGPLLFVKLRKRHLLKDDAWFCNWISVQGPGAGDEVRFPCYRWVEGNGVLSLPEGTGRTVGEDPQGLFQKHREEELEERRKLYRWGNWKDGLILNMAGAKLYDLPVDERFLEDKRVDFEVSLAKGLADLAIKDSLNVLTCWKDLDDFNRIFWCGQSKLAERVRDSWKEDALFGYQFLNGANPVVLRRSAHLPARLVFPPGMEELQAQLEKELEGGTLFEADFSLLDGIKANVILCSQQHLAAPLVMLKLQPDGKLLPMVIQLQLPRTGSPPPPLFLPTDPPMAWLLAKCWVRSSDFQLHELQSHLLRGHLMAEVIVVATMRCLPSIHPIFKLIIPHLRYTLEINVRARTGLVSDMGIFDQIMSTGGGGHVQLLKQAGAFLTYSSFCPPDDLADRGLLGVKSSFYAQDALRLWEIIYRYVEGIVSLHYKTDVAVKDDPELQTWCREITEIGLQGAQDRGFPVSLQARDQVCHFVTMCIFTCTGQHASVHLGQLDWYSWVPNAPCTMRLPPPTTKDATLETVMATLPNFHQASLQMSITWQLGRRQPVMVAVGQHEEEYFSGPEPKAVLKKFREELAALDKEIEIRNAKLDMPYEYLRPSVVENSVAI

Homo sapiens [5] = species on record: Homo sapiens; assay: (§1) Activation of recombinant His-tagged human cytosolic GPX4 U46C mutant expressed in Escherichia coli M15 assessed as increase in oxidized glutathione-mediated oxidation of NADPH to NADP+ at 200 uM using tert-butyl hydroperoxide as substrate preincubated for 5 mins followed by substrate addition measured for 6 mins by glutathione reductase enzyme coupled fluorescence assay relative to control
[6] = Binding affinity to recombinant His-tagged human cytosolic GPX4 U46C mutant expressed in Escherichia coli M15 by SPR analysis
[7] = target: Phospholipid hydroperoxide glutathione peroxidase GPX4 (Mus musculus) (UniProt O70325); assay: Activation of GPX4 in MEF assessed as increase in oxidized glutathione-mediated oxidation of NADPH to NADP+ using tert-butyl hydroperoxide as substrate preincubated for 5 mins followed by substrate addition measured for 6 mins by glutathione reductase enzyme coupled fluorescence assay; assay type: cell-based
Phospholipid hydroperoxide glutathione peroxidase GPX4 (Mus musculus), sequence (O70325 whole entry): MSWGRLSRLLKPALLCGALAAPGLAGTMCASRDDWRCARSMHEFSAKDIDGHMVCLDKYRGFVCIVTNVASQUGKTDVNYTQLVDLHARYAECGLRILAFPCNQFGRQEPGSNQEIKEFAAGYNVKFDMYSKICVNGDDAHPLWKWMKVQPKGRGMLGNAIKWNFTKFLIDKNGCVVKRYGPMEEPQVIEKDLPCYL

[8] = target: T3, Prostaglandin G/H synthase 2 (Homo sapiens) (UniProt P35354); assay: Inhibition of COX2 (unknown origin) at 500 uM preincubated for 15 mins followed by arachidonic acid substrate addition in presence of TMPD by spectrophotometric method
T3 sequence (whole entry): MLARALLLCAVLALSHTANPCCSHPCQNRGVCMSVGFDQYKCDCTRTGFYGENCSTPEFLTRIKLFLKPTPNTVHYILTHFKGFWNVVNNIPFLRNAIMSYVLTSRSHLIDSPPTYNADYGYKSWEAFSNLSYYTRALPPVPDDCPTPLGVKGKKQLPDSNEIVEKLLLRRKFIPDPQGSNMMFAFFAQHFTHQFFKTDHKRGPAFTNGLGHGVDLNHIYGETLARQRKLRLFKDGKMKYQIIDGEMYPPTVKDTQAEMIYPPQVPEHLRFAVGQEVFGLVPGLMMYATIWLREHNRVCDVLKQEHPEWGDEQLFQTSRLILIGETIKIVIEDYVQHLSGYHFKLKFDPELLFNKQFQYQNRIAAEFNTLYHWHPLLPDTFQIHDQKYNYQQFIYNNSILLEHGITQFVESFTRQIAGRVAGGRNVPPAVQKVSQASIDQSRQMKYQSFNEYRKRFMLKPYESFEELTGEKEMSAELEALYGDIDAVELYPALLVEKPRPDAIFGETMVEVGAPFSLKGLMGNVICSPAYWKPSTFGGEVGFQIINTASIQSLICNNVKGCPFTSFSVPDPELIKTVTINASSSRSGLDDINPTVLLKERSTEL

[9] = target: T1, Phospholipid hydroperoxide glutathione peroxidase GPX4 (Homo sapiens); assay: Activation of GPX4 (unknown origin) expressed in HEK293T cells harboring luc2P/NF-kBRE/Hygro plasmid assessed as inhibition of TNFalpha-stimulated NFkB activation preincubated for 30 mins followed by TNFalpha addition and measured after 6 hrs by luciferase reporter gene assay; assay type: cell-based
Homo sapiens [10] = species on record: Homo sapiens; assay: as §1, with “NADP+” for “NADP+ at 200 uM”, “assay” for “assay relative to control”

Activity [1]: Dose-dependent effect
Activity [2]: Dose-dependent effect
inhibition [3]: Dose-dependent effect
inhibition [4]: inactive
Activity (Homo sapiens [5]): 127%
Activity [7]: Dose-dependent effect
inhibition [8]: inactive
inhibition [9]: Dose-dependent effect
Activity (Homo sapiens [10]): Dose-dependent effect
EC150 (Homo sapiens [10]): 248 µM
SMILES: NS(=O)(=O)c1ccc(NC(S)=NCc2ccc(Cl)cc2)cc1
Kd [6]: 63 µM
